Measured values published in publication PMC5580926 (Antiviral therapy, 2016).
Where two headings read alike, the source gives them in different places.

How the values were obtained:
HCVcc-Luc (2a) = assay: microbe, parasite or virus in culture; assay type: cell-based, HCV; settings: read-out: EC50, HCVcc-Luc (2a)
Con1b replicon = Con1b replicon efficacy assay; assay type: cell-based, HCV; settings: Hepatitis C virus, read-out: EC50, Con1b replicon
in vitro = assay type: cell-based; settings: human
[1] = ATPlite cytotoxicity assay under Con1b replicon efficacy assay conditions; assay type: cell-based; settings: human

`C[C@@]1(O)[C@H](O)[C@@H](CO)O[C@H]1n1ccc(N)nc1=O` [2′-C-methylcytidine] gave an EC50 (HCVcc-Luc (2a); Hepatitis C virus) of 1400 ± 400 nM, an EC50 (Con1b replicon) of 1610 ± 70 nM and a CC50 (in vitro) of over 100000 nM. It also gave a CC50 ([1]; Con1b replicon cell line) of over 100000 nM.
Molecule `CN1CCN([C@@H](c2ccccc2)c2ccc(Cl)cc2)CC1` [(S)-CCZ, (S)-chlorcyclizine] has an EC50 (HCVcc-Luc (2a); single agent, mean of ≥3 independent tests ±SEM) of 24 ± 9 nM.
`CC(C)(C)NC(=O)N[C@H](C(=O)N1C[C@H]2[C@@H]([C@H]1C(=O)NC(CC1CCC1)C(=O)C(N)=O)C2(C)C)C(C)(C)C` (some centres unmarked) [Boceprevir, boceprevir] showed an EC50 (Con1b replicon) of 620 ± 10 nM, a CC50 (in vitro) of over 100000 nM and a CC50 [1] of over 100000 nM.
`COC(=O)N[C@H](C(=O)N1CCC[C@H]1c1nc(-c2ccc(-c3ccc(-c4c[nH]c([C@@H]5CCCN5C(=O)[C@@H](NC(=O)OC)C(C)C)n4)cc3)cc2)c[nH]1)C(C)C` [Daclatasvir, daclatasvir] gave an EC50 (HCVcc-Luc (2a); Hepatitis C virus) of 0.04 ± 0.02 nM, an EC50 (Con1b replicon) of 0.04 ± 0.02 nM and a CC50 (in vitro) of 45000 ± 1000 nM. For the same molecule, the CC50 ([1]; Con1b replicon cell line) was 22000 ± 1000 nM.
Molecule `CC(C)OC(=O)[C@H](C)N[P@](=O)(OC[C@H]1O[C@@H](n2ccc(=O)[nH]c2=O)[C@](C)(F)[C@@H]1O)Oc1ccccc1` [Sofosbuvir, sofosbuvir] has an EC50 (HCVcc-Luc (2a); Hepatitis C virus) of 60 ± 2 nM, an EC50 (Con1b replicon) of 400 ± 100 nM and a CC50 (in vitro) of over 100000 nM. The CC50 [1] was over 100000 nM.
For `CCC[C@H](NC(=O)[C@@H]1[C@H]2CCC[C@H]2CN1C(=O)[C@@H](NC(=O)[C@@H](NC(=O)c1cnccn1)C1CCCCC1)C(C)(C)C)C(=O)C(=O)NC1CC1` [Telaprevir, telaprevir], the EC50 (HCVcc-Luc (2a); Hepatitis C virus) was 200 ± 40 nM, the EC50 (Con1b replicon) was 550 ± 50 nM and the CC50 (in vitro) was over 100000 nM. The CC50 ([1]; Con1b replicon cell line) was 97800 ± 900 nM.
